# “And” between values parts separate entries of the source, which are not always exact repeats. Equal entries are not always repeated. Where two headings read alike, the source gives them in different places.
# Columns and labels:
# [1] = test system: subjects with diabetic or idiopathic gastroparesis; assay: DIGEST I: GRS Summary Score 2 (Factor 2: nausea and vomiting); type: in vivo, human
# Text: (§1) A daily proprietary patient reported outcome (PRO) tool was used to assess GP symptoms, the Gastroparesis Rating Scale (GRS), developed according to the current FDA PRO guidance. The GRS covers the following cardinal symptom domains: (1) nausea, (2) vomiting, (3) postprandial fullness/early satiety, (4) bloating, (5) upper abdominal pain, (6) gastric reflux/burning, and (7) bowel movements. The GRS symptom domains may be also categorized or grouped into Factor 1 (fullness, early satiety, bloating, upper abdominal pain, and epigastric burning) and Factor 2 (nausea and vomiting).
# (§2) GRS Factor 1 (also Summary Score 1) comprised fullness/early satiety, bloating, upper abdominal pain, and epigastric burning domains, whereas GRS Factor 2 (also Summary Score 2) comprised nausea and vomiting domains.
# (§3) After the psychometric evaluation the GRS was summarized using two summary scores: Summary Score 1 combined the fullness/early satiety, bloating, upper abdominal pain, and epigastric burning domains and Summary Score 2 combined the nausea and vomiting domains.
# [2] = test system: subjects with diabetic or idiopathic gastroparesis
# Text: as §1, §2, §3
# [3] = 5 mg/day, Week 4, diabetic gastroparesis population
# [4] = 5 mg/day, Week 4, idiopathic gastroparesis population
# [5] = 5 mg/day, Week 8, diabetic gastroparesis population
# [6] = 5 mg/day, Week 8, idiopathic gastroparesis population
# [7] = 5 mg/day, Week 12, diabetic gastroparesis population
# [8] = 5 mg/day, Week 12, idiopathic gastroparesis population
# [9] = 15 mg/day, Week 4, diabetic gastroparesis population
# [10] = 15 mg/day, Week 4, idiopathic gastroparesis population
# [11] = 15 mg/day, Week 8, diabetic gastroparesis population
# [12] = 15 mg/day, Week 8, idiopathic gastroparesis population
# [13] = 15 mg/day, Week 12, diabetic gastroparesis population
# [14] = 15 mg/day, Week 12, idiopathic gastroparesis population
# [15] = 30 mg/day, Week 4, diabetic gastroparesis population
# [16] = 30 mg/day, Week 4, idiopathic gastroparesis population
# [17] = 30 mg/day, Week 8, diabetic gastroparesis population
# [18] = 30 mg/day, Week 8, idiopathic gastroparesis population
# [19] = 30 mg/day, Week 12, diabetic gastroparesis population
# [20] = 30 mg/day, Week 12, idiopathic gastroparesis population
substance,measurement,setting,value
"1-isopropyl-2-oxo-1,2-dihydroquinoline-3-carboxylic acid {(1S,3R,5R)-8-[(R)-2-hydroxy-3-(methanesulfonyl-methyl-amino)propyl]-8-azabicyclo[3.2.1]oct-3-yl}amide [Velusetrag]","LS Mean Difference vs placebo, GRS Summary Score 2 (Factor 2)","[1]; 5 mg/day, Week 4, ITT",−0.1 points and −0.1 (0.12) points
same,"LS Mean change from baseline, GRS Summary Score 2 (Factor 2)","[1]; 5 mg/day, Week 4, ITT",0.8 (0.08) points
same,"LS Mean Difference vs placebo, GRS Summary Score 2 (Factor 2)",[1]; [3],−0.0 points
same,"LS Mean change from baseline, GRS Summary Score 2 (Factor 2)",[1]; [3],−0.8 points
same,"LS Mean Difference vs placebo, GRS Summary Score 2 (Factor 2)",[1]; [4],−0.3 (0.17) points
same,"LS Mean change from baseline, GRS Summary Score 2 (Factor 2)",[1]; [4],−0.9 (0.12) points
same,"LS Mean Difference vs placebo, GRS Summary Score 2 (Factor 2)","[1]; 5 mg/day, Week 8, ITT",−0.1 (0.13) points
same,"LS Mean change from baseline, GRS Summary Score 2 (Factor 2)","[1]; 5 mg/day, Week 8, ITT",−0.9 (0.09) points
same,"LS Mean Difference vs placebo, GRS Summary Score 2 (Factor 2)",[1]; [5],0.0 points
same,"LS Mean change from baseline, GRS Summary Score 2 (Factor 2)",[1]; [5],−0.9 points
same,"LS Mean Difference vs placebo, GRS Summary Score 2 (Factor 2)",[1]; [6],−0.3 (0.18) points
same,"LS Mean change from baseline, GRS Summary Score 2 (Factor 2)",[1]; [6],−0.9 (0.13) points
same,"LS Mean Difference vs placebo, GRS Summary Score 2 (Factor 2)","[1]; 5 mg/day, Week 12, ITT",−0.2 points and −0.2 (0.12) points
same,"LS Mean change from baseline, GRS Summary Score 2 (Factor 2)","[1]; 5 mg/day, Week 12, ITT",−1.0 (0.08) points
same,"LS Mean Difference vs placebo, GRS Summary Score 2 (Factor 2)",[1]; [7],−0.1 points
same,"LS Mean change from baseline, GRS Summary Score 2 (Factor 2)",[1]; [7],−1.0 points
same,"LS Mean Difference vs placebo, GRS Summary Score 2 (Factor 2)",[1]; [8],−0.3 (0.17) points
same,"LS Mean change from baseline, GRS Summary Score 2 (Factor 2)",[1]; [8],−1.0 (0.12) points
same,"LS Mean Difference vs placebo, GRS Summary Score 2 (Factor 2)","[1]; 15 mg/day, Week 4, ITT",−0.0 (0.12) points
same,"LS Mean change from baseline, GRS Summary Score 2 (Factor 2)","[1]; 15 mg/day, Week 4, ITT",−0.7 (0.09) points
same,"LS Mean Difference vs placebo, GRS Summary Score 2 (Factor 2)",[1]; [9],0.1 points
same,"LS Mean change from baseline, GRS Summary Score 2 (Factor 2)",[1]; [9],−0.7 points
same,"LS Mean Difference vs placebo, GRS Summary Score 2 (Factor 2)",[1]; [10],−0.2 (0.18) points
same,"LS Mean change from baseline, GRS Summary Score 2 (Factor 2)",[1]; [10],−0.8 (0.13) points
same,"LS Mean Difference vs placebo, GRS Summary Score 2 (Factor 2)","[1]; 15 mg/day, Week 8, ITT",−0.0 (0.13) points
same,"LS Mean change from baseline, GRS Summary Score 2 (Factor 2)","[1]; 15 mg/day, Week 8, ITT",−0.8 (0.10) points
same,"LS Mean Difference vs placebo, GRS Summary Score 2 (Factor 2)",[1]; [11],0.3 points
same,"LS Mean change from baseline, GRS Summary Score 2 (Factor 2)",[1]; [11],−0.6 points
same,"LS Mean Difference vs placebo, GRS Summary Score 2 (Factor 2)",[1]; [12],−0.2 (0.19) points
same,"LS Mean change from baseline, GRS Summary Score 2 (Factor 2)",[1]; [12],−0.9 (0.14) points
same,"LS Mean Difference vs placebo, GRS Summary Score 2 (Factor 2)","[1]; 15 mg/day, Week 12, ITT",−0.1 (0.12) points
same,"LS Mean change from baseline, GRS Summary Score 2 (Factor 2)","[1]; 15 mg/day, Week 12, ITT",−0.9 (0.09) points
same,"LS Mean Difference vs placebo, GRS Summary Score 2 (Factor 2)",[1]; [13],0.1 points
same,"LS Mean change from baseline, GRS Summary Score 2 (Factor 2)",[1]; [13],−0.8 points
same,"LS Mean Difference vs placebo, GRS Summary Score 2 (Factor 2)",[1]; [14],−0.3 (0.18) points
same,"LS Mean change from baseline, GRS Summary Score 2 (Factor 2)",[1]; [14],−1.0 (0.13) points
same,"LS Mean Difference vs placebo, GRS Summary Score 2 (Factor 2)","[1]; 30 mg/day, Week 4, ITT",0.1 (0.12) points
same,"LS Mean change from baseline, GRS Summary Score 2 (Factor 2)","[1]; 30 mg/day, Week 4, ITT",−0.6 (0.09) points
same,"LS Mean Difference vs placebo, GRS Summary Score 2 (Factor 2)",[1]; [15],0.1 points
same,"LS Mean change from baseline, GRS Summary Score 2 (Factor 2)",[1]; [15],−0.6 points
same,"LS Mean Difference vs placebo, GRS Summary Score 2 (Factor 2)",[1]; [16],−0.0 (0.17) points
same,"LS Mean change from baseline, GRS Summary Score 2 (Factor 2)",[1]; [16],−0.7 (0.12) points
same,"LS Mean Difference vs placebo, GRS Summary Score 2 (Factor 2)","[1]; 30 mg/day, Week 8, ITT",−0.0 (0.13) points
same,"LS Mean change from baseline, GRS Summary Score 2 (Factor 2)","[1]; 30 mg/day, Week 8, ITT",−0.8 (0.09) points
same,"LS Mean Difference vs placebo, GRS Summary Score 2 (Factor 2)",[1]; [17],0.1 points
same,"LS Mean change from baseline, GRS Summary Score 2 (Factor 2)",[1]; [17],−0.8 points
same,"LS Mean Difference vs placebo, GRS Summary Score 2 (Factor 2)",[1]; [18],−0.1 (0.18) points
same,"LS Mean change from baseline, GRS Summary Score 2 (Factor 2)",[1]; [18],−0.8 (0.13) points
same,"LS Mean Difference vs placebo, GRS Summary Score 2 (Factor 2)","[1]; 30 mg/day, Week 12, ITT",−0.2 (0.12) points
same,"LS Mean change from baseline, GRS Summary Score 2 (Factor 2)","[1]; 30 mg/day, Week 12, ITT",−1.0 (0.08) points
same,"LS Mean Difference vs placebo, GRS Summary Score 2 (Factor 2)",[1]; [19],−0.2 points
same,"LS Mean change from baseline, GRS Summary Score 2 (Factor 2)",[1]; [19],−1.1 points
same,"LS Mean Difference vs placebo, GRS Summary Score 2 (Factor 2)",[1]; [20],−0.2 (0.17) points
same,"LS Mean change from baseline, GRS Summary Score 2 (Factor 2)",[1]; [20],−0.9 (0.12) points
same,"LS Mean Difference vs placebo, GRS Summary Score 1 (Factor 1)","[2]; 5 mg/day, Week 4, ITT",−0.4 points and −0.4 (0.16) points
same,"LS Mean change from baseline, GRS Summary Score 1 (Factor 1)","[2]; 5 mg/day, Week 4, ITT",−1.3 (0.11) points
same,"LS Mean Difference vs placebo, GRS Summary Score 1 (Factor 1)",[2]; [3],−0.3 (0.22) points
same,"LS Mean change from baseline, GRS Summary Score 1 (Factor 1)",[2]; [3],−1.2 (0.16) points
same,"LS Mean Difference vs placebo, GRS Summary Score 1 (Factor 1)",[2]; [4],−0.5 (0.23) points
same,"LS Mean change from baseline, GRS Summary Score 1 (Factor 1)",[2]; [4],−1.3 (0.16) points
same,"LS Mean Difference vs placebo, GRS Summary Score 1 (Factor 1)","[2]; 5 mg/day, Week 8, ITT",−0.3 (0.18) points
same,"LS Mean change from baseline, GRS Summary Score 1 (Factor 1)","[2]; 5 mg/day, Week 8, ITT",−1.4 (0.13) points
same,"LS Mean Difference vs placebo, GRS Summary Score 1 (Factor 1)",[2]; [5],−0.2 (0.25) points
same,"LS Mean change from baseline, GRS Summary Score 1 (Factor 1)",[2]; [5],−1.4 (0.18) points
same,"LS Mean Difference vs placebo, GRS Summary Score 1 (Factor 1)",[2]; [6],−0.4 (0.26) points
same,"LS Mean change from baseline, GRS Summary Score 1 (Factor 1)",[2]; [6],−1.4 (0.18) points
same,"LS Mean Difference vs placebo, GRS Summary Score 1 (Factor 1)","[2]; 5 mg/day, Week 12, ITT",−0.4 points and −0.4 (0.19) points
same,"LS Mean change from baseline, GRS Summary Score 1 (Factor 1)","[2]; 5 mg/day, Week 12, ITT",−1.5 (0.13) points
same,"LS Mean Difference vs placebo, GRS Summary Score 1 (Factor 1)","[2]; 15 mg/day, Week 4, ITT",−0.2 (0.17) points
same,"LS Mean change from baseline, GRS Summary Score 1 (Factor 1)","[2]; 15 mg/day, Week 4, ITT",−1.1 (0.12) points
same,"LS Mean Difference vs placebo, GRS Summary Score 1 (Factor 1)",[2]; [9],−0.2 points
same,"LS Mean change from baseline, GRS Summary Score 1 (Factor 1)",[2]; [9],−1.2 points
same,"LS Mean Difference vs placebo, GRS Summary Score 1 (Factor 1)",[2]; [10],−0.4 (0.25) points
same,"LS Mean change from baseline, GRS Summary Score 1 (Factor 1)",[2]; [10],−1.2 (0.18) points
same,"LS Mean Difference vs placebo, GRS Summary Score 1 (Factor 1)","[2]; 15 mg/day, Week 8, ITT",−0.1 (0.19) points
same,"LS Mean change from baseline, GRS Summary Score 1 (Factor 1)","[2]; 15 mg/day, Week 8, ITT",−1.2 (0.14) points
same,"LS Mean Difference vs placebo, GRS Summary Score 1 (Factor 1)",[2]; [11],0.0 points
same,"LS Mean change from baseline, GRS Summary Score 1 (Factor 1)",[2]; [11],−1.2 points
same,"LS Mean Difference vs placebo, GRS Summary Score 1 (Factor 1)",[2]; [12],−0.4 (0.28) points

# — patent US11642339B2 (THERAVANCE BIOPHARMA R&D IP, LLC, priority 2017, dated 2023)
